The text below walks through data of paper PMC3914206.

Holding throughout (type): binding
Assay [1] has as its target T1, panel of 442 kinases (Homo sapiens, UniProt Q9BX84).
T1 construct: purchased KINOMEscan
Particulars: kinase TRPM6; compound concentration 10 µM. An excerpt: (§1) We assessed the selectivity of members of this scaffold using the KINOMEscan methodology across a near comprehensive panel of 442 kinases [[18,27]].

In assay [2] the target is T2, panel of 442 kinases (Homo sapiens, UniProt P78368).
T2 construct: purchased KINOMEscan
Particulars: Compound Concentration 10 µM.
Text: as §1

For assay [3], the target named is T3, panel of 442 kinases (Homo sapiens, UniProt Q59H18).
T3 construct: purchased KINOMEscan
T3 sequence (Q59H18 1-835): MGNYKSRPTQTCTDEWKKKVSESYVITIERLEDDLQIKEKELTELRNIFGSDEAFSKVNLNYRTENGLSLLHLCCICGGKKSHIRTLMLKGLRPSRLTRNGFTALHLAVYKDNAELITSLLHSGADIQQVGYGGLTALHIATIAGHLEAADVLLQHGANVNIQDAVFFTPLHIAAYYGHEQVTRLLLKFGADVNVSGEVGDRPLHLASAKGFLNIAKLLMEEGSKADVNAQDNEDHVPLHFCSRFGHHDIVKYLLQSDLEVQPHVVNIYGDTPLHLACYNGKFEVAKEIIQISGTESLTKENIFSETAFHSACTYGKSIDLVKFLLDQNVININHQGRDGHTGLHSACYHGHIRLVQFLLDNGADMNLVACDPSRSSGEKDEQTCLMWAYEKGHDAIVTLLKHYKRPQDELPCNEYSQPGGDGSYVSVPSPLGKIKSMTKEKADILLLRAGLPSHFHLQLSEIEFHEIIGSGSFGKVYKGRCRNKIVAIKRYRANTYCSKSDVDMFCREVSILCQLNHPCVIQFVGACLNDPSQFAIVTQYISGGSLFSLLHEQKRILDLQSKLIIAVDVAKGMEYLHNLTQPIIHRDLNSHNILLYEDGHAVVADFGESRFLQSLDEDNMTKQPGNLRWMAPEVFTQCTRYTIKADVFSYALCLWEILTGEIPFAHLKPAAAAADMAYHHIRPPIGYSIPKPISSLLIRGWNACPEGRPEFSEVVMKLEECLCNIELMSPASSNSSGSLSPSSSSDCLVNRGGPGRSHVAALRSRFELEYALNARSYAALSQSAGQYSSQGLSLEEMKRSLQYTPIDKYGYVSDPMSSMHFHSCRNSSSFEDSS
Particulars: kinase TNNI3K; compound concentration 10 µM.
Text: as §1

T1 sequence (Q9BX84 whole entry): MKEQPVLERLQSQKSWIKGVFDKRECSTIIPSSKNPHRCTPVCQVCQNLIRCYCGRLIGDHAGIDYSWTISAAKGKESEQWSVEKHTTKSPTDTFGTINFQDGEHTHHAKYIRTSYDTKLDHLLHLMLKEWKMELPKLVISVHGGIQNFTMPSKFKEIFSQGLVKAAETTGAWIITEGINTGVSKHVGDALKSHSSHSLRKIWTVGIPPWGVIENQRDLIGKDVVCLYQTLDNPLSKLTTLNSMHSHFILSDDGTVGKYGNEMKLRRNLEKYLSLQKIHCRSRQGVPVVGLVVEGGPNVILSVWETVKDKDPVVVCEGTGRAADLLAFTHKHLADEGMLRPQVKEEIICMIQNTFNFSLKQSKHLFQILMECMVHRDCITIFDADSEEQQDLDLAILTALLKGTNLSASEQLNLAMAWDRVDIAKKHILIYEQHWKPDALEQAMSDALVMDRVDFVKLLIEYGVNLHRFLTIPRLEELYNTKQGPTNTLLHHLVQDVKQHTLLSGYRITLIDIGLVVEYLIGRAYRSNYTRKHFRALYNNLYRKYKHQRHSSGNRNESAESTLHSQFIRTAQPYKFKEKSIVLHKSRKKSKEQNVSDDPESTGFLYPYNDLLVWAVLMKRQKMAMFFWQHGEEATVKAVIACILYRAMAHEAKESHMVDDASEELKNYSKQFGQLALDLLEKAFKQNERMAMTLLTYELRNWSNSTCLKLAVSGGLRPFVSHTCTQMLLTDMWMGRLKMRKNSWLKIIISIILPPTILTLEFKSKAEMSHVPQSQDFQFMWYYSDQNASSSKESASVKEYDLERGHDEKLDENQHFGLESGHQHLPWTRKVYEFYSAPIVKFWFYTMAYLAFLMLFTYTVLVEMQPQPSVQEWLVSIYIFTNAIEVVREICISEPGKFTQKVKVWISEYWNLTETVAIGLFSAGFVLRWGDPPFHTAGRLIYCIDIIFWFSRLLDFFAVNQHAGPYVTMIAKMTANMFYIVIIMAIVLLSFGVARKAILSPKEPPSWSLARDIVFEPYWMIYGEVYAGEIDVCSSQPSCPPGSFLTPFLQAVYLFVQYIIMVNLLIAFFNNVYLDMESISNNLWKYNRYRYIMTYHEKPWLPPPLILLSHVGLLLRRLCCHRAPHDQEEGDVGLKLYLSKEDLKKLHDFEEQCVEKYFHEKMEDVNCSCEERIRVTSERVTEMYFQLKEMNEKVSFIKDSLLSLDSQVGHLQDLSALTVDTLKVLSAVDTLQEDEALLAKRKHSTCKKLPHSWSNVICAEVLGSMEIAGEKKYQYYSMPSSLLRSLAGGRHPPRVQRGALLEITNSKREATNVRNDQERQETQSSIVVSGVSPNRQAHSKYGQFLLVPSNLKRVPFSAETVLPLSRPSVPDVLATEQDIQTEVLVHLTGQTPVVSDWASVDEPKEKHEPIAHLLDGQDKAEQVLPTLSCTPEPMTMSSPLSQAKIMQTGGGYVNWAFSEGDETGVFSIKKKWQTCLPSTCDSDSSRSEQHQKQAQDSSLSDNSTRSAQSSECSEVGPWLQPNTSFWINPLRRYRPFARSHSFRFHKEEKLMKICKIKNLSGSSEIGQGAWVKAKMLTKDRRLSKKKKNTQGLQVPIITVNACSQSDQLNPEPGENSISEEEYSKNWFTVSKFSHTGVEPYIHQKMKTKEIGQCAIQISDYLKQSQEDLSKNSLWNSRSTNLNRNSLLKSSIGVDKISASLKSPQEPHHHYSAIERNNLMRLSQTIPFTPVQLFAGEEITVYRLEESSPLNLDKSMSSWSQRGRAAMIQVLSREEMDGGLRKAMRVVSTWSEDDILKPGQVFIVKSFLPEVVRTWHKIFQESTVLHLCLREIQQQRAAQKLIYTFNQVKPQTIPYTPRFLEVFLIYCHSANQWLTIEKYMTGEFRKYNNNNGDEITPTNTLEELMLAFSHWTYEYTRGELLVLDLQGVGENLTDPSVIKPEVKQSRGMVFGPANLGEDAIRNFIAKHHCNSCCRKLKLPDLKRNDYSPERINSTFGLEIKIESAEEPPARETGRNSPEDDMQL
T2 sequence (P78368 whole entry): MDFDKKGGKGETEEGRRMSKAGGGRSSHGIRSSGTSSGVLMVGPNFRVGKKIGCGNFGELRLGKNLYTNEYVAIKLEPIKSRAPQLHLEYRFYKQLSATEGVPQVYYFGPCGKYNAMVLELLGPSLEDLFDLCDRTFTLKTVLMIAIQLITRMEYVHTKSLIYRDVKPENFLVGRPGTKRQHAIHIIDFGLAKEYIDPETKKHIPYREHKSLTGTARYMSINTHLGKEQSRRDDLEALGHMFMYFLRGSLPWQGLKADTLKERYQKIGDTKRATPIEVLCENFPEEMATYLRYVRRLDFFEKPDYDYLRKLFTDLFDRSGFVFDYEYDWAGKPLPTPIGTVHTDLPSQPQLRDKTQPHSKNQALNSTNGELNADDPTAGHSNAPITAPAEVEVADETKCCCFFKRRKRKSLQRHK

On to `COc1cc(C(=O)N2CCC(N3CCN(C)CC3)CC2)ccc1Nc1ncc2c(n1)N(C)c1ccccc1C(=O)N2C` [15 (LRRK2-IN-1)], for which the “% Ctrl, TRPM6” value in assay [1] was determined as 100 % Ctrl. Moreover, the “KINOMEscan: CSNK1G2” value in assay [2] turned out to be 100. For the same compound, the “% Ctrl, TNNI3K” value in assay [3] turned out to be 100 % Ctrl.

Consider `COc1cc(C(=O)N2CCC(N3CCN(C)CC3)CC2)ccc1Nc1ncc2c(n1)N1CCc3cccc(c31)C(=O)N2C` [Compound 24], for which the “% Ctrl, TRPM6” value in assay [1] is recorded as 100 % Ctrl. In assay [3], the “% Ctrl, TNNI3K” value is 73 % Ctrl.

As for `COc1cc(C(=O)N2CCC(N3CCN(C)CC3)CC2)ccc1Nc1ncc2c(n1)N(C1CCCC1)c1ccccc1C(=O)N2C` [Compound 25, 11-cyclopentyl-2-((2-methoxy-4-(4-(4-methylpiperazin-1-yl)piperidine-1-carbonyl)phenyl)amino)-5-methyl-5H-benzo[e]pyrimido[5,4-b][1,4]diazepin-6(11H)-one], the “% Ctrl, TRPM6” value in assay [1] came to 100 % Ctrl. For the same compound, the “KINOMEscan: CSNK1G2” value in assay [2] came out at 91. Besides, the “% Ctrl, TNNI3K” value in assay [3] was 82 % Ctrl.

Turning to `CCOc1cc(C(=O)N2CCC(N3CCN(C)CC3)CC2)ccc1Nc1ncc2c(n1)N(C1CCCC1)c1ccccc1C(=O)N2C` [Compound 26], the “% Ctrl, TRPM6” value in assay [1] worked out at 94 % Ctrl. In addition, the “KINOMEscan: CSNK1G2” value in assay [2] came to 96. In assay [3], the “% Ctrl, TNNI3K” value is on record as 89 % Ctrl.
